From doi:10.1101/2025.04.25.650653, “Hierarchical small molecule inhibition of MYST acetyltransferases” (bioRxiv, 2025)

Assays:
Test in all cases: MYST KAT biomarker western blot, BT-549
Format in all cases: cell-based
H3K14Ac (KAT7) = details: BT-549 cells, 24 h, near the GI50 dose
Source text: (§1) Figure 6. […] (C) Dependence of breast cancer cell lines on non-MYST KATs (EP300, CREBBP), MYST KATs (KAT6A, KAT6B, KAT7, KAT8, KAT5), and a MYST KAT complex member (BRPF1) derived from on DepMap CRISPR screening data. BT-549 is highlighted in orange. Lower CERES score indicates a greater dependence of the cell line on the specified gene. […] Data is representiative of n=2 biological replicates.
(§2) Analysis of DepMap-derived CRISPR screening data supports the notion that while breast cancer models vary widely in their requirement for EP300 and CREBBP, BT-549 appears to a fairly independent line. By comparison, targeting of KAT6 and KAT7 exerts modest effects on growth while KAT8 is highly inhibitory, consistent with its designation as an essential gene (Fig. 6C).[47], [48] […] KAT3 (H3K18Ac) and KAT5 (H2A.ZK4/K7Ac) were unaffected. […]
(§3) distinguish between tightly grouped and diffuse clusters, compactness was quantified by calculating the average pairwise Euclidean distance between all points within each cluster. Clusters with lower average […]
(§4) were visualized as two-dimensional scatter plots with points colored according to cluster assignments, […]
(§5) Binding structures between FOXK2 (Uniprot: Q01167) and candidate interactors identified from our chemoproteomic data were predicted using AlphaPulldown4 v0.30.7,4 with multiple sequence alignments generated via ColabFold Search v1.5.5 on the NIH HPC Biowulf Cluster. Five models were generated per protein-protein pair without using templates or paired MSAs. Local Interaction Scores (LIS) and Local Interaction Area (LIA) were calculated according to previously described formulas.5 Structural visualizations were generated using ChimeraX v1.8.
(§6) Composite scoring of candidate FOXK2-protein interactions
(§7) To prioritize potential interactions, we developed a composite scoring system integrating multiple AlphaFold metrics (mpDockQ/pDockQ, LIS, and LIA), building upon established approaches for protein-protein interaction analysis.6 Each interaction was evaluated against minimum acceptable thresholds (1610 for LIA, 0.073 for LIS, and 0.175 for mpDockQ/pDockQ) and assigned a weighted constant (k): 1.0 for passing all three thresholds, 0.75 for two, 0.5 for one, and zero for none. Metrics were then min-max normalized, summed, and multiplied by the weighted constant to generate final composite scores for ranking candidate interactions. All data, code, and analysis scripts can be accessed as described in Data […]
(§8) Prediction of interface contacts […]
(§9) P61964), were further analyzed to identify interface residue-residue contacts using both AlphaFold2 and AlphaFold3. For AlphaFold2 analysis7 we calculated Euclidean distances between alpha carbon coordinates of residues using Sci-Py's Distance Matrix Module, filtering for interactions under 8Å. […]

H3K18Ac (KAT3) = details: BT-549 cells, 24 h, 0.1-30 μM
Source text: as §1, §2, §3, §4, §5, §6, §7, §8, §9

H2A.ZK4/K7Ac (KAT5) = details: BT-549 cells, 24 h, 0.1-30 μM
Source text: as §1, §2, §3, §4, §5, §6, §7, §8, §9

H3K23Ac (KAT6A/B) = details: BT-549 cells, 24 h, near the GI50 dose
Source text: as §1, §2, §3, §4, §5, §6, §7, §8, §9

COc1cccc(OC)c1S(=O)(=O)Nc1noc2cc(Cn3cccn3)cc(OC)c12 [PF-9363]
inhibition of KAT7 (H3K14Ac) (H3K14Ac (KAT7)): near complete inhibiton
effect on KAT3 (H3K18Ac) (H3K18Ac (KAT3)): unaffected
effect on KAT5 (H2A.ZK4/K7Ac) (H2A.ZK4/K7Ac (KAT5)): unaffected
inhibition of KAT6A/B (H3K23Ac) (H3K23Ac (KAT6A/B)): near complete inhibiton
